The subject of assay [1] is Colletotrichum lagenarium. To be noted: in vivo.
For a further assay, the system named is Piricularia oryzae. It is filed as in vivo. The settings on record: Rice Blast, five days. More on the design: scale not given here.
The next assay has as its system Phytophthora infestans. It is filed as in vivo. The settings on record: Tomato Late Blight, five days. More on the design: scale not given here.
Assay [2] deals with Aspergillus niger. The experiment in a line: Agar dilution plate. It is filed as cell-based. To be noted: An; 100 ppm, 72 hours at 23° C. A digest of the protocol:
(§1)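 Fungal inoculum on Sabouraud's dextrose agar dosed at approx. 100 ppm compound, 23° C for ~72 h. Growth rated 0 = no control, 5 = 100% effectiveness.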

Assay [3] relates to Monilinia fructicola. In words: Agar dilution plate. It is filed as cell-based. To be noted: Mf; 100 ppm, 72 hours at 23° C. The procedure, abridged:
as §1

In another assay the test system is Pythium de Baryanum. The experiment in a line: Agar dilution plate. It is filed as cell-based. The settings on record: Pd; 100 ppm, 72 hours at 23° C. The procedure, abridged: as §1
The next assay has as its system Rhizoctonia solani. The experiment in a line: Agar dilution plate. It is filed as cell-based. The settings on record: Rs; 100 ppm, 72 hours at 23° C. The procedure, abridged: as §1
For another assay, the system named is Fusarium lycopersici. In words: Agar dilution plate. To be noted: Fl; 100 ppm, 72 hours at 23° C. It is filed as cell-based. A digest of the protocol: as §1
The test system of assay [4] is Collectotrichum lagenarium. In words: Agar dilution plate. It is filed as cell-based. To be noted: Cl; 100 ppm, 72 hours at 23° C. The procedure, abridged: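 Compounds were incorporated at about 100 ppm in Sabouraud's dextrose agar, inoculated, and incubated about 72 h at 23 °C. Growth was scored 0 (no control) or 5 (100% effectiveness), and the test was repeated twice.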

Assay [5] has as its system Stemphylium sarcinaeforme. In words: Agar dilution plate. To be noted: Ss; 100 ppm, 72 hours at 23° C. It is filed as cell-based. A digest of the protocol:
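Compound incorporated into Sabouraud's dextrose agar at about 100 ppm, inoculated with Stemphylium sarcinaeforme and incubated about 72 hours at 23 °C. Growth scored 0 (no control) or 5 (100% effectiveness), test run in repeat.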

The subject of another assay is Verticillium albo-atrum. In words: Agar dilution plate. It is filed as cell-based. The settings on record: Va; 100 ppm, 72 hours at 23° C. The procedure, abridged:
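Compounds incorporated at about 100 ppm into Sabouraud's dextrose agar, then inoculated with the fungus and incubated about 72 hours at 23° C. Growth scored as 0 (no control) or 5 (100% effectiveness); test repeated twice.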

The subject of the next assay is Venturia inaequalis. To be noted: in vivo.
The next assay has as its system Pseudomonas solaracaerum. It is filed as cell-based. To be noted: 100 ppm, 72 hours at 23° C. Note: key: 0: no control; 5: 100% effectiveness of the test compound against the specified organism.
The next assay concerns Xanthomonas vesicatoria. It is filed as cell-based. The settings on record: 100 ppm; subcultures 72 hours at 37° C. Note: key: 0: No Effect; 9: Kill of Bacteria; 5: Stasis, but not Kill of all Bacteria.
The subject of another assay is Aerobacter aerogenes. It is filed as cell-based. The settings on record: 100 ppm; subcultures 72 hours at 37° C.
The next assay concerns Staphylococcus aureus. It is filed as cell-based. The settings on record: 100 ppm; subcultures 72 hours at 37° C. Note: key: 0: No Effect; 9: Kill of Bacteria; 5: Stasis, but not Kill of all Bacteria.
Assay [6] deals with Aspergillus niger. The experiment in a line: Spore germination inhibition. It is filed as cell-based. To be noted: 24 hours. A digest of the protocol: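 Test compound is suspended in water at 100, 10 or 1 ppm. and dispensed into one dram "opticlear" vials. Each vial receives one drop of a spore suspension taken from seven-day Aspergillus niger cultures grown on potato-dextrose agar. Capped vials rotate on a tumbler for 24 hours, then are inspected for inhibition of mycelial growth.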

Assay [7] concerns Stemphylium sarcinaeforme. In words: Spore germination inhibition. It is filed as cell-based. The settings on record: Stemphylium sarciniforme; for inhibition at 100 ppm: 24 h, read-out: % Inhibition of Spore Germination; for inhibition at 1 ppm / inhibition at 10 ppm: 24 hours. A digest of the protocol: (§2)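 Test compounds were suspended in water at 100, 10 or 1 ppm and inoculated with spore suspensions from 7-day (A. niger) or 14-day potato-dextrose agar cultures. Vials were tumbled for 24 hours and then examined for inhibition of mycelial growth.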

The subject of assay [8] is Monilinia fructicola. In words: Spore germination inhibition. It is filed as cell-based. To be noted: for inhibition at 1 ppm / inhibition at 10 ppm: 24 hours; for inhibition at 100 ppm: 24 h, read-out: % Inhibition of Spore Germination. A digest of the protocol: as §2

Values joined by “and” are separate entries in the source; they are usually repeats but may differ in a detail not shown here. Identical values can stand only once. Like-named read-outs stand apart in the source and are kept apart here.
Throughout, for Antibacterial Activity rating: key: 0: No Effect; 9: Kill of Bacteria; 5: Stasis, but not Kill of all Bacteria.

As for `O=[N+]([O-])C(CSC(=S)N1CCCCC1)CSC(=S)N1CCCCC1` [Example 3, 2-Nitrotrimethylene 1-Piperidinecarbodithioate], the disease control index in [1] is 4; in the assay with Piricularia oryzae (150 ppm), 5; in the assay with Piricularia oryzae (300 ppm), 5; in the assay on Phytophthora infestans (150 ppm), 4; in the assay with Phytophthora infestans (300 ppm), 4.

Consider `CN(C)C(=S)SC(c1ccc(Cl)cc1Cl)C(C(c1ccc(Cl)cc1Cl)N(C)C)[N+](=O)[O-]` (centres unmarked) [Example 8, 1,3-Bis(2,4-dichlorophenyl)-3-dimethylamino-2-nitropropyl Dimethyldithiocarbamate], for which the “Agar Dilution Plate rating” value is 0 in the assay on Aspergillus niger [2]; 5 (100% effectiveness of the test compound against the specified organism) in the assay on Monilinia fructicola [3]; 0 in the assay with Pythium de Baryanum; 0 in the assay on Rhizoctonia solani; 0 with Fusarium lycopersici; 0 in [4]. The figures for the “Agar Dilution Plate rating” value (in assay [5]; with Verticillium albo-atrum; in the assay with Pseudomonas solaracaerum) were 0, 5 (100% effectiveness of the test compound against the specified organism) and 0, respectively. Also, the disease control index in assay [1] is 5; with Venturia inaequalis it was 5 and 4; in the assay on Piricularia oryzae (at 100 ppm), 5; in the assay with Piricularia oryzae (at 500 ppm) it was 5; with Phytophthora infestans (at 100 ppm), 5; in the assay on Phytophthora infestans (at 500 ppm), 5. Further, the results for the “Antibacterial Activity rating” value in the assay with Xanthomonas vesicatoria, in the assay on Aerobacter aerogenes and with Staphylococcus aureus were 0, 0 and 5, respectively.

In the case of `O=[N+]([O-])CC(SC(=S)N1CCCC1)c1ccccc1` (stereo not drawn) [Example 15, α-(Nitromethyl)benzyl 1-pyrrolidinecarbodithioate], the disease control index in assay [1] is 5; in the assay with Piricularia oryzae (150 ppm), 4; in the assay with Piricularia oryzae (300 ppm), 4.

`O=[N+]([O-])CC(SC(=S)N1CCCCC1)c1ccccc1` (stereo not drawn) [Example 16, α-(Nitromethyl)benzyl 1-Piperidinecarbodithioate]: the disease control index (in [1]; in the assay with Venturia inaequalis; in the assay with Piricularia oryzae (150 ppm); in the assay with Piricularia oryzae (300 ppm)) was 5 each time.

Consider `CN(C)C(=S)SC(C[N+](=O)[O-])c1ccccc1Cl` (stereo not drawn) [Example 27, o-Chloro-α-(nitromethyl)benzyl Dimethyldithiocarbamate], for which the “Agar Dilution Plate rating” value was 0 in the assay on Aspergillus niger [2]; 5 (100% effectiveness of the test compound against the specified organism) with Monilinia fructicola [3]; 5 (100% effectiveness of the test compound against the specified organism) in the assay with Pythium de Baryanum; 0 with Rhizoctonia solani; 5 (100% effectiveness of the test compound against the specified organism) with Fusarium lycopersici; 5 (100% effectiveness of the test compound against the specified organism) in assay [4]. The “Agar Dilution Plate rating” value in assay [5] is on record as 5 (100% effectiveness of the test compound against the specified organism); with Verticillium albo-atrum, 5 (100% effectiveness of the test compound against the specified organism); in the assay on Pseudomonas solaracaerum it was 0. Moreover, the disease control index with Venturia inaequalis was 5 and 0; in the assay with Piricularia oryzae (150 ppm), 2; with Piricularia oryzae (300 ppm) it was 4; with Piricularia oryzae (600 ppm) it was 4; in the assay on Piricularia oryzae (1200 ppm), 4; with Phytophthora infestans (150 ppm), 2. Further, the disease control index in the assay with Phytophthora infestans (300 ppm) amounted to 2; in the assay on Phytophthora infestans (600 ppm) it was 4; in the assay on Phytophthora infestans (1200 ppm) it was 4. Also, the inhibition at 1 ppm in the assay with Aspergillus niger [6] came to 0%; in assay [7], 100%; in the assay on Monilinia fructicola [8], 0%. For the same compound, the inhibition at 10 ppm (with Aspergillus niger [6]; in assay [7]; in the assay on Monilinia fructicola [8]) was 100% in each case. Besides, the inhibition at 100 ppm (in the assay with Aspergillus niger [6]; in assay [7]; in the assay with Monilinia fructicola [8]) was 100% in each case. The “Antibacterial Activity rating” value is listed as 5 in the assay with Xanthomonas vesicatoria, 9 with Aerobacter aerogenes and 5 in the assay on Staphylococcus aureus.

For the compound `CN(C)C(=S)SC(C[N+](=O)[O-])c1ccc(Br)cc1` (stereo not drawn) [Example 30, p-Bromo-α-(nitromethyl)benzyl Dimethyldithiocarbamate], the “Agar Dilution Plate rating” value in the assay with Aspergillus niger [2] is 0; with Monilinia fructicola [3], 5 (100% effectiveness of the test compound against the specified organism); with Pythium de Baryanum, 5 (100% effectiveness of the test compound against the specified organism); with Rhizoctonia solani it was 5 (100% effectiveness of the test compound against the specified organism); with Fusarium lycopersici, 0; in [4], 5 (100% effectiveness of the test compound against the specified organism). In addition, the “Agar Dilution Plate rating” value (in assay [5]; in the assay with Verticillium albo-atrum; with Pseudomonas solaracaerum) was 0 throughout. Further, the disease control index worked out at 5 in the assay on Venturia inaequalis; 5 in the assay with Piricularia oryzae (150 ppm); 5 in the assay on Piricularia oryzae (300 ppm); 5 in the assay with Piricularia oryzae (600 ppm); 5 in the assay with Piricularia oryzae (1200 ppm); 2 in the assay with Phytophthora infestans (150 ppm). Further, the disease control index with Phytophthora infestans (300 ppm) amounted to 3; in the assay with Phytophthora infestans (600 ppm), 3; in the assay on Phytophthora infestans (1200 ppm), 4. The inhibition at 1 ppm turned out to be 0% with Aspergillus niger [6], 0% in assay [7] and 100% in the assay with Monilinia fructicola [8]. Further, the inhibition at 10 ppm (with Aspergillus niger [6]; in assay [7]; in the assay with Monilinia fructicola [8]) was 100% throughout. Besides, the inhibition at 100 ppm (in the assay on Aspergillus niger [6]; in assay [7]; in the assay with Monilinia fructicola [8]) was 100% throughout. In addition, the “Antibacterial Activity rating” value with Xanthomonas vesicatoria is on record as 0; in the assay with Aerobacter aerogenes, 0; in the assay on Staphylococcus aureus it was 5.

As for `CN(C)C(=S)SC(C[N+](=O)[O-])c1cccs1` (stereo not drawn) [Example 33, α-(Nitromethyl)-2-thenyl Dimethyldithiocarbamate], the “Agar Dilution Plate rating” value is recorded as 0 in the assay on Aspergillus niger [2]; 5 (100% effectiveness of the test compound against the specified organism) in the assay with Monilinia fructicola [3]; 0 with Pythium de Baryanum; 0 in the assay on Rhizoctonia solani; 0 with Fusarium lycopersici; 5 (100% effectiveness of the test compound against the specified organism) in assay [4]. Also, the “Agar Dilution Plate rating” value in assay [5] was 5 (100% effectiveness of the test compound against the specified organism); with Verticillium albo-atrum it was 0; in the assay on Pseudomonas solaracaerum, 0. Moreover, the disease control index in the assay on Venturia inaequalis, with Piricularia oryzae (150 ppm), in the assay on Piricularia oryzae (300 ppm), in the assay on Phytophthora infestans (150 ppm) and with Phytophthora infestans (300 ppm) was 5 each time. Also, the inhibition at 1 ppm in the assay on Aspergillus niger [6] stood at 0%; in [7], 100%; with Monilinia fructicola [8], 100%. In addition, the inhibition at 10 ppm (in the assay with Aspergillus niger [6]; in assay [7]; in the assay with Monilinia fructicola [8]) was 100% each time. The inhibition at 100 ppm (with Aspergillus niger [6]; in [7]; with Monilinia fructicola [8]) was 100% each time. The “Antibacterial Activity rating” value in the assay on Xanthomonas vesicatoria came out at 0; in the assay on Aerobacter aerogenes, 0; in the assay on Staphylococcus aureus, 5.
